Test [1] addresses EGFR exon 20 insertion mutant kinase D770-N771insNPG (Homo sapiens, UniProt P00533, INS770NPG). Briefly: Kinase activity assay (33P-ATP filter-binding), EGFR exon 20 insertion mutant kinase D770-N771insNPG. Format: biochemical. The settings on record: ATP Km concentration; 10 concentrations.
Test [2] deals with T1, Ba/F3-FL-EGFR-V769-D770 ins ASV (Homo sapiens, UniProt P00533, DUP767-769, cells depend on it).
T1 construct: Ba/F3-FL-EGFR IC50 (nM) V769-D770ins ASV; other: 72 h; class symbols; Ba/F3-FL-EGFR IC50 (nM) V769-D770ins ASV
Briefly: Cell proliferation inhibitory activity test (CellTiter-Glo), EGFR exon 20 insertion mutation. Format: cell-based. As to conditions: 72 h; class symbols; read-out: Ba/F3-FL-EGFR IC50 (nM) V769-D770ins ASV.
Experimental: (§1) Cell Proliferation Inhibitory Activity Test Experiment of EGFR Exon 20 Insertion Mutation:
(§2) Cells such as Ba/F3-FL-EGFR-V769-D770 ins ASV, Ba/F3-FL-EGFR-D77-N771 ins SVD, Ba/F3-FL-EGFR-H773-V774 ins NPH, Ba/F3-FL-EGFR-A763-Y764 ins FQEA, constructed by Hefei Precedo Pharmaceuticals Co., Ltd.
(§3) 1000× compound mother liquor was prepared using DMSO, diluted to 20× final concentration using a culture medium, set aside.
(§4) Cells obtained after centrifugation were suspended with a certain amount of the culture medium and counted. The cell suspension solution was adjusted to a specified density using the culture medium, the diluted cell suspension solution was taken into a 96-well plate; 5 μl of 20× compound solution was added to each well of the 96-well plate, the content of DMSO in the final system was 0.1%; the 96-well plate was incubated for 72 h in a 5% CO2 cell incubator at 37° C.
(§5) The 96-well plate was brought to room temperature before detection, 50 μl of CellTiter-Glo® reagent was added to each well, the plate was read after being shaken for 2 minutes on a shaker and placed for 10 minutes at room temperature.
(§6) Inhibition rate (Inh %) relative to control wells processed by a solvent (DMSO) was calculated using the following equation: Inhibition rate (Inh %)=100−(RLU compound−RLU blank)/(RLU control−RLU blank)*100%

Test [3] addresses Ba/F3-FL-EGFR-D77-N771 ins SVD (Homo sapiens, UniProt P00533, DUP768-770, cells depend on it). Described as above. The settings on record: 72 h; class symbols; read-out: Ba/F3-FL-EGFR IC50 (nM) D77-N771ins SVD. Format: cell-based.
Experimental: as §1, §2, §3, §4, §5, §6
Test [4] concerns the target Ba/F3-FL-EGFR-H773-V774 ins NPH (Homo sapiens, UniProt P00533, DUP771-773, cells depend on it). The description is as above. Format: cell-based. As to conditions: 72 h; class symbols; read-out: Ba/F3-FL-EGFR IC50 (nM) H773-V774ins NPH.
Experimental: as §1, §2, §3, §4, §5, §6
The target in test [5] is Ba/F3-FL-EGFR-A763-Y764 ins FQEA (Homo sapiens, UniProt P00533, INS763FQEA, cells depend on it). The test is described as above. Format: cell-based. As to conditions: 72 h; class symbols; read-out: Ba/F3-FL-EGFR IC50 (nM) A763-Y764ins FQEA.
Experimental: as §1, §2, §3, §4, §5, §6
Test [6] concerns the target EGFR exon 20 insertion mutant kinase A763_Y764insFHEA (Homo sapiens, UniProt P00533, INS763FHEA). Briefly: Kinase activity assay (33P-ATP filter-binding), EGFR exon 20 insertion mutant kinase A763_Y764insFHEA. Format: biochemical. As to conditions: for IC50: ATP Km concentration, 10 concentrations.
Another test has as its system PC9 (EGFRdel19) cells. The test can be described thus: Cell proliferation inhibitory activity test (WST-8) of related EGFR mutations. Format: cell-based. As to conditions: 72 h, cell viability; read-out: IC 50 (nM) PC-9 (EGFRdel19).
Test [7] relates to H-1975 (EGFRL858R/T790M) cells. The description is as above. Format: cell-based. As to conditions: Homo sapiens, NCI-H1975, 72 h, read-out: IC 50 (nM) H-1975 (EGFRL858/T790M).
Experimental: (§7) Cell Proliferation Inhibitory Activity Test Experiments of Related EGFR Mutations: 1.
(§8) Cell culture medium: RPMI containing 10% fetal bovine serum, 5 mM HEPES, and 2 mM glutamine.
(§9) Incubated overnight in a 5% carbon dioxide incubator at 37° C.
(§10) The compound was diluted to the required concentration in the culture medium at five times the final concentration. 20 microliters of the compound diluent was transferred to a culture plate containing 80 microliters of the cells incubated overnight, and continued to be incubated for 72 hours.
(§11) After 72 hours, 10 microliters of 6 mg/ml WST8 solution dissolved in a phosphate buffer solution was added, and incubated for 3 hours in 5% carbon dioxide at 37° C. A light absorption value at 450 nm was read and subtracted by an absorption value at 650 nm.
(§12) The obtained light absorption value was used to calculate cell viability according to the following equation: Cell viability %=(OD determination value/OD drug-free cell)×100

Experimental for PC9 (EGFRdel19) cells: as §7, §8, §9, §10, §11, §12

On to `C=CC(=O)Nc1cc(Nc2ncc(C(=O)OC(C)C)c(-n3ncc4c3-c3ccccc3C4)n2)c(OC)cc1N(C)CCN(C)C` [Example 11], for which the IC50 in test [1] was 7360 nM.
With `C=CC(=O)Nc1cc(Nc2ncc(C(=O)OC(C)C)c(-c3cn(C)c4ccccc34)n2)c(OC)cc1N1C[C@H]2CN(C)C[C@H]2C1` [Example 36], the GI50 in test [2], in test [3], in test [4] and in test [5] was less than 5 nM each time.
On to `C=CC(=O)Nc1cc(Nc2ncc(C(=O)OC(C)C)c(-c3cn(C)c4ccccc34)n2)c(OC)cc1N(C)[C@H]1[C@@H]2CN(C)C[C@@H]21` [Example 40], for which the GI50 in test [2], in test [3], in test [4] and in test [5] was less than 5 nM in each case.
Take `C=CC(=O)Nc1cc(Nc2ncc(-c3nnc(C(C)C)o3)c(-c3cn(C)c4ccccc34)n2)c(OC)cc1N(C)CCN(C)C` [Example 31]: the GI50 in test [2] was less than 5 nM.
Turning to `C=CC(=O)Nc1cc(Nc2ncc(-c3nnco3)c(-c3cn(C)c4ccccc34)n2)c(OC)cc1N(C)CCN(C)C` [Example 21], in test [2], the GI50 is less than 5 nM.
`C=CC(=O)Nc1cc(Nc2ncc(C(=O)OC(C)C)c(-c3nn(C)c4c3Cc3ccccc3-4)n2)c(OC)cc1N(C)CCN(C)C` [Example 14]: the IC50 was 44.6 nM in test [6] and 10.1 nM in test [1].
As for `[2H]C([2H])([2H])n1cc(-c2nc(Nc3cc(NC(=O)C=C)c(N(C)CCN(C)C)nc3OCC(F)(F)F)ncc2-c2nnc(C)o2)c2ccccc21` [Example 3], the IC50 came to 6.07 nM in test [6] and 1.48 nM in test [1].
Consider `C=CC(=O)Nc1cc(Nc2ncc(C3=NOC(C)(C)N3)c(-c3cn(C)c4ccccc34)n2)c(OC)cc1N(C)CCN(C)C` [Example 19], for which the GI50 in test [2] was greater than 50 nM.
With `[2H]C([2H])([2H])n1cc(-c2nc(Nc3cc(NC(=O)C=C)c(N(C)CCN(C)C)nc3OCC(F)(F)F)ncc2CO)c2ccccc21` [Example 10], the IC50 in test [6] turned out to be 36.4 nM; in test [1] it was 7.66 nM.
The like results for `C=CC(=O)Nc1cc(Nc2ncc(C(=O)OC(C)C)c(-n3cc4c(n3)Cc3ccccc3-4)n2)c(OC)cc1N(C)CCN(C)C` [Example 7] were, in that order, 5600 nM and 1190 nM.
`C=CC(=O)Nc1cc(Nc2ncc(C(=O)OC(C)C)c(-c3cn(C)c4ccccc34)n2)c(OC)cc1N(C)CC1(N(C)C)CC1` [Example 41]: the GI50 in test [2], in test [3], in test [4] and in test [5] was less than 5 nM each time.
For the compound `C=CC(=O)Nc1cc(Nc2ncc(C(=O)OC(C)C)c(-c3cn(C)c4ccccc34)n2)c(OC)cc1N(C)C1(CN(C)C)CC1` [Example 42], the GI50 in test [2] was less than 5 nM.
Consider `C=CC(=O)Nc1cc(Nc2nccc(-c3cn(C)c4ccccc34)n2)c(OC)cc1N(C)CCN(C)C` [AZD-9291, osimertinib, reference compound], for which the IC50 is 7.85 nM in the test with PC9 (EGFRdel19) cells and 20.2 nM in test [7].
Regarding `C=CC(=O)Nc1cc(Nc2ncc(-c3nnc(C)s3)c(-c3cn(C)c4ccccc34)n2)c(OC)cc1N(C)CCN(C)C` [Example 25], the GI50 in test [2] is less than 5 nM; in test [3], 5 to 50 nM; in test [4], 5 to 50 nM; in test [5] it was less than 5 nM.
Regarding `[2H]C([2H])([2H])n1cc(-c2nc(Nc3cc(NC(=O)C=C)c(N(C)[C@H]4[C@@H]5CN(C)C[C@@H]54)cc3OC)ncc2C(=O)OC(C)C)c2ccccc21` [Example 47], the GI50 in test [2], in test [3], in test [4] and in test [5] was less than 5 nM throughout.
In the case of `C=CC(=O)Nc1cc(Nc2ncc(C(=O)N(C)S(C)(=O)=O)c(-c3cn(C)c4ccccc34)n2)c(OC)cc1N(C)CCN(C)C` [Example 9], the IC50 in test [6] was 10.4 nM; in test [1], 1.83 nM.
`C=CC(=O)Nc1cc(Nc2ncc(C(=O)OC(C)C)c(-n3cc4c(n3)-c3ccccc3C4)n2)c(OC)cc1N(C)CCN(C)C` [Example 12]: the results for the IC50 in test [6] and in test [1] were 2.27 nM and 0.3 nM, respectively. The “activity relative to the compound with the optimal activity disclosed in WO2015195228A1 (TAK788)” value in test [6] (EGFR exon 20 insertion mutant kinases of Table 4) fell in the range of 2 to 3 times.
On to `C=CC(=O)Nc1cc(Nc2ncc(-c3nnc(C)o3)c(-c3cn(C)c4ccccc34)n2)c(OC)cc1N(C)C1(CN(C)C)CC1` [Example 22], for which, in test [2], the GI50 is less than 5 nM.
The same measure, in the same setting: to `C=CC(=O)Nc1cc(Nc2ncc(C(=O)OC(C)C)c(-c3cn(C)c4ccccc34)n2)c(OC)cc1N(C)[C@H]1C[C@@H]2CN(C)C[C@@H]2C1` [Example 43] belongs less than 5 nM.
`C=CC(=O)Nc1cc(Nc2ncc(-c3nnc(C)o3)c(-c3cn(C4CC4)c4ccccc34)n2)c(OCC(F)(F)F)nc1N(C)CCN(C)C` [Example 4]: the IC50 in test [6] is 15.3 nM; in test [1], 2.79 nM.
Turning to `C=C(F)C(=O)Nc1cc(Nc2ncc(-c3nnc(C)o3)c(-c3cn(C)c4ccccc34)n2)c(OC)cc1N(C)[C@H]1[C@@H]2CN(C)C[C@@H]21` [Example 34], the GI50 is less than 5 nM in test [2], less than 5 nM in test [3], 5 to 50 nM in test [4] and less than 5 nM in test [5].
Turning to `C=CC(=O)Nc1cc(Nc2nccc(-n3ncc4c3-c3ccccc3C4)n2)c(OC)cc1N(C)CCN(C)C` [Example 13], the IC50 in test [6] amounted to 61.1 nM; in test [1], 169 nM.
As for `C=C(F)C(=O)Nc1cc(Nc2ncc(-c3nnc(C)o3)c(-c3cn(C)c4ccccc34)n2)c(OC)cc1N(C)CCN(C)C` [Example 27], the GI50 in test [2] was 5 to 50 nM.
Regarding `C=CC(=O)Nc1cc(Nc2ncc(-c3nnc(C(F)F)s3)c(-c3cn(C)c4ccccc34)n2)c(OC)cc1N(C)CCN(C)C` [Example 29], the GI50 in test [2] is 5 to 50 nM; in test [3], less than 5 nM; in test [4] it was 5 to 50 nM; in test [5] it was less than 5 nM.
For the compound `C=CC(=O)Nc1cc(Nc2ncc(-c3nnc(C)o3)c(-c3cn(C)c4ccccc34)n2)c(OC)cc1N(C)CC1(N(C)C)CC1` [Example 23], the GI50 in test [2], in test [3], in test [4] and in test [5] was less than 5 nM each time.
As for `C=CC(=O)Nc1cc(Nc2ncc(-c3nnc(C)o3)c(-c3cn(C)c4ccccc34)n2)c(OC)cc1N(C)C1CCN(C)CC1` [Example 32], the GI50 in test [2] fell in the range of 5 to 50 nM.
For the compound `C=CC(=O)Nc1cc(Nc2ncc(C(=O)OC(C)C)c(-n3ncc4c3Cc3ccccc3-4)n2)c(OC)cc1N(C)CCN(C)C` [Example 6], the IC50 in test [6] worked out at 9 nM; in test [1] it was 1.38 nM.
Turning to `C=CC(=O)Nc1cc(Nc2ncc(C3=NOC(C)(C)O3)c(-c3cn(C)c4ccccc34)n2)c(OC)cc1N(C)CCN(C)C` [Example 20], the GI50 in test [2] is greater than 50 nM.
For `[2H]C([2H])([2H])n1cc(-c2nc(Nc3cc(NC(=O)C=C)c(N(C)CCN(C)C)cc3OC)ncc2-c2nnc(C)o2)c2ccccc21` [Example 24], the GI50 in test [2], in test [3], in test [4] and in test [5] was less than 5 nM throughout.
On to `C=CC(=O)Nc1cc(Nc2ncc(-c3nnc(CC)o3)c(-c3cn(C)c4ccccc34)n2)c(OC)cc1N(C)CCN(C)C` [Example 33], for which the GI50 in test [2], in test [3], in test [4] and in test [5] was less than 5 nM in each case.
As for `C=CC(=O)Nc1cc(Nc2ncc(-c3nnc(C)o3)c(-c3cn(C)c4ccccc34)n2)c(OC)cc1N1C[C@H]2CN(C)C[C@H]2C1` [Example 28], the GI50 in test [2] is greater than 50 nM.
Still for that read-out and setting: the value for `C=CC(=O)Nc1cc(Nc2ncc(-c3nnc(C)o3)c(-c3cn(C)c4ccccc34)n2)c(OC)cc1N(C)C1CC2(C1)CN(C)C2` [Example 30] was greater than 50 nM.
Regarding `C=CC(=O)Nc1cc(Nc2ncc(-c3nnc(C)o3)c(-c3c[nH]c4ccccc34)n2)c(OC)cc1N(C)CCN(C)C` [Example 26], the GI50 in test [2], in test [3], in test [4] and in test [5] was less than 5 nM in each case.

The values are drawn from patent US12509441B2, “Compounds used as kinase inhibitors and application thereof” (TYK MEDICINES (ZHENGZHOU), INC., priority 2020, dated 2025).
